Among the data in patent US12643892B2, “Pyridazinone compounds for the treatment of neuromuscular diseases” (Edgewise Therapeutics, Inc., priority 2020, dated 2026) are IC50 values, retold here.

SMILES strings stand for the structures.

This test deals with Skeletal Myofibril ATPase (Rabbit Psoas myofibrils). The test can be described thus: Skeletal Myofibril ATPase Assay. As to conditions: PK/LDH-coupled NADH absorbance at 340 nm. It is filed as biochemical. On the procedure:
Overview: Myosin ATPase activity was assessed by using a coupled reaction system, in which ADP generated by the myosin ATPase function was coupled to the disappearance of NADH through the pyruvate kinase/lactate dehydrogenase (PK-LDH) system. Myosin ATPase activity produces ADP, which was used as a substrate for PK to produce pyruvate and regenerate ATP. The pyruvate was then used as a substrate by LDH to oxidize NADH to NAD+. The rate of the reaction was monitored through the time-dependent disappearance of NADH using absorbance at 340 nm. Inhibition of ATPase activity by the assayed compounds was indicated by a reduced rate of NADH loss, relative to vehicle-treated controls, over the experimental time window. To assess the selectivity of the assayed compounds for skeletal myofibrils, the compounds were counter-screened in cardiac myofibrils.
Materials: The following stock solutions and reagents were used in the Skeletal Myofibril ATPase Assay:
Stock Solutions of pCa buffer. Combine PIPES, CaCl2, and EGTA solutions with 70 mL of water. Adjust pH to 7.0 and bring final volume to 100 mL.
Buffer A & Buffer B. Buffers were stored on ice until use.
Skeletal Myofibril ATPase Assay Procedure: BSA, ATP, NADH, PEP, and DTT solutions were thawed at room temperature, then transferred to ice. Pellet-frozen myofibrils (approximately twice the required volume) were transferred into a sufficiently large tube and capped. Myofibrils were thawed by rolling in a water bath for approximately 15 min at room temperature and cooled on ice. Buffers A and B were prepared by adjusting volumes as necessary for required number of wells and stored on ice. 0.5 μL of the compounds to be assayed were added into wells of a 384-well plate. Buffers A and B were mixed by inversion immediately prior to use, then 25 μL of each was dispensed using a Multidrop dispenser (Buffer A first, then Buffer B). The absorbance within the wells was measured at 340 nm, using a kinetic protocol in which the wells are read every 1.5-2 min for 1 h. The reaction rate was qualitatively assessed by subtracting the minimum absorbance value from the maximum value for each well, using either the SoftMax Pro plate reader software or a spreadsheet program such as Excel. Using GraphPad Prism 8.0, the data was normalized, with 100% activity defined as the absorbance change in the 1% DMSO vehicle wells and 0% assigned to no change in absorbance over the course of the experiment. The normalized data were fit to a variable-slope four-parameter logistic model, constraining the bottom to be 0 or greater. Compounds of Table 1 to 3 were tested and results of the assay appear in Table 4 herein. A=IC50 is less than or equal to 10 μM; B=IC50 is greater than 10 μM and less than 100 μM; C=IC50 is greater than 100 μM.
By IC50 is commonly meant the concentration that gives 50% inhibition. Consider `CCNC(=O)Cn1nc(-c2nc(-c3cc(Cl)ccc3F)no2)ccc1=O` [Compound 1, 2-(3-(3-(5-chloro-2-fluorophenyl)-1,2,4-oxadiazol-5-yl)-6-oxopyridazin-1(6H)-yl)-N-ethylacetamide], for which the half-maximal inhibitory concentration (IC50) was ≤ 10 µM.
For `CCNC(=O)Cn1nc(-c2nc(-c3cccc(F)c3)no2)ccc1=O` [Compound 2, N-ethyl-2-(3-(3-(3-fluorophenyl)-1,2,4-oxadiazol-5-yl)-6-oxopyridazin-1(6H)-yl)acetamide], the concentration for half-maximal inhibition (IC50) is ≤ 10 µM.
Consider `CCNC(=O)Cn1nc(-c2nc(-c3cccc(Cl)c3F)no2)ccc1=O` [Compound 3, 2-(3-(3-(3-chloro-2-fluoropheny)-1,2,4-oxadiazol-5-yl)-6-oxopyridazin-1(6H)-yl)-N-ethylacetamide], for which the IC50 was ≤ 10 µM.
In the case of `CCNC(=O)Cn1nc(-c2nc(-c3cccc(OC)c3)no2)ccc1=O` [Compound 4, N-ethyl-2-(3-(3-(3-methoxyphenyl)-1,2,4-oxadiazol-5-yl)-6-oxopyridazin-1(6H)-yl)acetamide], the IC50 is ≤ 10 µM.
Regarding `O=C(Cn1nc(-c2nc(-c3cccc(Cl)c3)no2)ccc1=O)NC1CCC1` [Compound 5, 2-(3-(3-(3-chlorophenyl)-1,2,4-oxadiazol-5-yl)-6-oxopyridazin-1(6H)-yl)-N-cyclobutylacetamide], the 50% inhibitory concentration (IC50) was ≤ 10 µM.
Next, `CCNC(=O)Cn1nc(-c2nc(-c3cccc(OC(F)(F)F)c3)no2)ccc1=O` [Compound 6, N-ethyl-2-(6-oxo-3-(3-(3-(trifluoromethoxy)phenyl)-1,2,4-oxadiazol-5-yl)pyridazm-1(6H)-yl)acetamide]: ≤ 10 µM; `CCNC(=O)Cn1nc(-c2nc(-c3cccc(OC(F)F)c3)no2)ccc1=O` [Compound 7, 2-(3-(3-(3-(difluoromethoxy)phenyl)-1,2,4-oxadiazol-5-yl)-6-oxopyridazin-1(6H)-yl)-N-ethylacetamide]: ≤ 10 µM.
As for `CCNC(=O)Cn1nc(-c2nc(-c3ccc(F)c(F)c3)no2)ccc1=O` [Compound 8, 2-(3-(3-(3,4-difluorophenyl)-1,2,4-oxadiazol-5-yl)-6-oxopyridazin-1(6H)-yl)-N-ethylacetamide], the half-maximal inhibitory concentration (IC50) is ≤ 10 µM.
As to `CCNC(=O)Cn1nc(-c2nc(-c3cc(F)cc(F)c3)no2)ccc1=O` [Compound 9, 2-(3-(3-(3,5-difluorophenyl)-1,2,4-oxadiazol-5-yl)-6-oxopyridazin-1(6H)-yl)-N-ethylacetamide], the 50% inhibitory concentration (IC50) was ≤ 10 µM.
The result for `CCNC(=O)Cn1nc(-c2nc(-c3cncc(C(F)(F)F)c3)no2)ccc1=O` [Compound 10, N-ethyl-2-(6-oxo-3-(3-(5-(trifluoromethyl)pyridin-3-yl)-1,2,4-oxadiazol-5-yl)pyridazin-1(6H)-yl)acetamide] reads ≤ 10 µM.
The result for `CCNC(=O)Cn1nc(-c2nc(-c3cccc(C(F)(F)F)c3)no2)ccc1=O` [Compound 11, N-ethyl-2-(6-oxo-3-(3-(3-(trifluoromethyl)phenyl)-1,2,4-oxadiazol-5-yl)pyridazin-1(6H)-yl)acetamide] reads ≤ 10 µM; that for `CCNC(=O)Cn1nc(-c2nc(-c3cncc(Cl)c3)no2)ccc1=O` [Compound 12, 2-(3-(3-(5-chloropyridin-3-yl)-1,2,4-oxadiazol-5-yl)-6-oxopyridazin-1(6H)-yl)-N-ethylacetamide], ≤ 10 µM.
`CCNC(=O)Cn1nc(-c2nc(-c3cccnc3)no2)ccc1=O` [Compound 13, N-ethyl-2-(6-oxo-3-(3-(pyridin-3-yl)-1,2,4-oxadiazol-5-yl)pyridazin-1(6H)-yl)acetamide] had an IC50 of 10 to 100 µM.
Take `CCNC(=O)Cn1nc(-c2nc(-c3cccc(Cl)c3)no2)ccc1=O` [Compound 14, 2-(3-(3-(3-chlorophenyl)-1,2,4-oxadiazol-5-yl)-6-oxopyridazin-1(6H)-yl)-N-ethylacetamide]: the IC50 was ≤ 10 µM.
For the compound `CCNC(=O)Cn1nc(-c2nc(C3CC3)no2)ccc1=O` [Compound 15, 2-(3-(3-cyclopropyl-1,2,4-oxadiazol-5-yl)-6-oxopyridazin-1(6H)-yl)-N-ethylacetamide], the 50% inhibitory concentration (IC50) fell in the range of 10 to 100 µM.
Next, `CCNC(=O)Cn1nc(-c2nc(-c3ccccc3)no2)ccc1=O` [Compound 16, N-ethyl-2-(6-oxo-3-(3-phenyl-1,2,4-oxadiazol-5-yl)pyridazin-1(6H)-yl)acetamide]: ≤ 10 µM.
Next, `O=C(Cn1nc(-c2nnc(-c3cc(Cl)ccc3Cl)s2)ccc1=O)NC1CCC1` [Compound 18, N-cyclobutyl-2-(3-(5-(2,5-dichlorophenyl)-1,3,4-thiadiazol-2-yl)-6-oxopyridazin-1(6H)-yl)acetamide]: ≤ 10 µM; `CCNC(=O)Cn1nc(-c2nnc(-c3cncc(C(F)(F)F)c3)s2)ccc1=O` [Compound 19, N-ethyl-2-(6-oxo-3-(5-(5-(trifluoromethyl)pyridin-3-yl)-1,3,4-thiadiazol-2-yl)pyridazin-1(6H)-yl)acetamide]: ≤ 10 µM.
As for `O=C(Cn1nc(-c2nnc(-c3cncc(Cl)c3)s2)ccc1=O)NC1CCC1` [Compound 20, 2-(3-(5-(5-chloropyridin-3-yl)-1,3,4-thiadiazol-2-yl)-6-oxopyridazin-1(6H)-yl)-N-cyclobutylacetamide], the concentration for half-maximal inhibition (IC50) was ≤ 10 µM.
`O=C(Cn1nc(-c2nnc(-c3ccccn3)s2)ccc1=O)NC1CCC1` [Compound 22, N-cyclobutyl-2-(6-oxo-3-(5-(pyridin-2-yl)-1,3,4-thiadiazol-2-yl)pyridazin-1(6H)-yl)acetamide]: the IC50 was ≤ 10 µM.
Regarding `O=C(Cn1nc(-c2nnc(-c3cccc(Cl)c3)s2)ccc1=O)NC1CCC1` [Compound 23, 2-(3-(5-(3-chlorophenyl)-1,3,4-thiadiazol-2-yl)-6-oxopyridazin-1(6H)-yl)-N-cyclobutylacetamide], the IC50 is ≤ 10 µM.
The result for `CCNC(=O)Cn1nc(-c2nnc(-c3cccc(Cl)c3)s2)ccc1=O` [Compound 24, 2-(3-(5-(3-chlorophenyl)-1,3,4-thiadiazol-2-yl)-6-oxopyridazin-1(6H)-yl)-N-ethylacetamide] reads ≤ 10 µM; that for `CCNC(=O)Cn1nc(-c2ncc(-c3cccc(Cl)c3)s2)ccc1=O` [Compound 25, 2-(3-(5-(3-chlorophenyl)thiazol-2-yl)-6-oxopyridazin-1(6H)-yl)-N-ethylacetamide], ≤ 10 µM; that for `Cc1cnc(-c2ccc(=O)n(CC(=O)NCc3ccccc3Cl)n2)s1` [Compound 26, N-(2-chlorobenzyl)-2-(3-(5-methylthiazol-2-yl)-6-oxopyridazin-1(6H)-yl)acetamide], ≤ 10 µM.
Regarding `CCNC(=O)Cn1nc(-c2ncc(-c3cccc(Cl)c3)o2)ccc1=O` [Compound 27, 2-(3-(5-(3-chlorophenyl)oxazol-2-yl)-6-oxopyridazin-1(6H)-yl)-N-ethylacetamide], the IC50 is ≤ 10 µM.
As for `CCNC(=O)Cn1nc(-c2nc(-c3cccc(Cl)c3)co2)ccc1=O` [Compound 30, 2-(3-(4-(3-chlorophenyl)oxazol-2-yl)-6-oxopyridazin-1(6H)-yl)-N-ethylacetamide], the IC50 is ≤ 10 µM.
Next, `CCNC(=O)Cn1nc(-c2noc(-c3cccc(Cl)c3)n2)ccc1=O` [Compound 31, 2-(3-(5-(3-chlorophenyl)-1,2,4-oxadiazol-3-yl)-6-oxopyridazin-1(6H)-yl)-N-ethylacetamide]: ≤ 10 µM; `CCNC(=O)Cn1nc(-c2nnc(C34CC(C3)C4)s2)ccc1=O` [Compound 32, 2-(3-(5-(bicyclo[1.1.1]pentan-1-yl)-1,3,4-thiadiazol-2-yl)-6-oxopyridazin-1(6H)-yl)-N-ethylacetamide]: ≤ 10 µM.
Next, `Cc1ccc(-c2ccc(=O)n(CC(=O)NC(C)C)n2)s1` [Compound 33, N-isopropyl-2-(3-(5-methylthiophen-2-yl)-6-oxopyridazin-1(6H)-yl)acetamide]: ≤ 10 µM; `Cc1ccc(-c2ccc(=O)n(CC(=O)NCc3ccccc3F)n2)s1` [Compound 34, N-(2-fluorobenzyl)-2-(3-(5-methylthiophen-2-yl)-6-oxopyridazin-1(6H)-yl)acetamide]: ≤ 10 µM.
Next, `Cc1ccc(-c2ccc(=O)n(CC(=O)NCc3ccccc3)n2)s1` [Compound 35, N-benzyl-2-(3-(5-methylthiophen-2-yl)-6-oxopyridazin-1(6H)-yl)acetamide]: 10 to 100 µM; `Cc1ccc(-c2ccc(=O)n(CC(=O)N[C@](C)(C#N)C(C)C)n2)s1` [Compound 36, (S)-N-(2-cyano-3-methylbutan-2-yl)-2-(3-(5-methylthiophen-2-yl)-6-oxopyridazin-1(6H)-yl)acetamide]: 10 to 100 µM.
